The values below come from article PMC5807507, “Crystal structures of a bacterial dipeptidyl peptidase IV reveal a novel substrate recognition mechanism distinct from that of mammalian orthologues” (Scientific Reports, 2018).

Experiment [1] concerns the target T1, PmDAP IV (Pseudoxanthomonas mexicana, UniProt Q6F3I7).
T1 construct: gene dap4; M12I lies in the removed signal; no tag; 723 residues, 82-kDa; homodimer; crystal model Ala22-Pro745
Description: biochemical. The procedure: Inhibitor sensitivities of PmDAP IV and human DPP IV Gliptins and diprotin A were purchased from NAMIKI SHOJI Co., Ltd. (Tokyo, Japan) and Peptide Institute, Inc. (Osaka, Japan), respectively. Half-maximal inhibitory concentration (IC50) values were determined by fitting to a sigmoid curve (4-parameter logistic curve) using ImageJ[73]. […] Inhibitor concentrations for PmDAP IV were 0.78, 1.56, 3.13, 6.25, 12.5, 25, 50 and 100 µM, and those for human DPP IV were 0.78, 1.56, 3.13, 6.25, 12.5, 25, 50 and 100 nM. Standard deviations were calculated from three independent experiments. Fluorescence intensity was measured with excitation at 355 nm and emission at 460 nm using an Infinite 200 PRO microplate reader. Inhibition constants (Ki) were calculated using the Cheng-Prusoff equation[74]. Arg106 of PmDAP IV, which is involved in the recognition of the carbonyl group of the P2 residue of the substrate peptide, was mutated to Ala or Lys. The mutants were expressed and purified using the method described above for wild-type PmDAP IV. Recombinant human DPP IV was purchased from ATGen Co., Ltd. (Los Angeles, USA). Kinetic parameters were determined by fitting the experimental data to the Michaelis–Menten equation using Excel Solver (Microsoft) by nonlinear least squares fitting for different concentrations (0.78, 1.56, 3.13, 6.25, 12.5, 25, 50 and 100 µM) of glycyl-L-proline 4-methylcoumaryl-7-amide (Gly-Pro-MCA, Peptide Institute) as a substrate. The enzyme reaction was performed in a reaction buffer containing 50 mM sodium phosphate buffer pH 8.0, 5 mM EDTA and 0.005% Tween 20 at 298 K for 20 min, and standard deviations were calculated from three independent experiments. The fluorescence intensity of the released MCA was measured with excitation at 355 nm and emission at 460 nm using an Infinite 200 PRO microplate reader (TECAN).
Target sequence in this assay (Q6F3I7 22-745 limits assumed): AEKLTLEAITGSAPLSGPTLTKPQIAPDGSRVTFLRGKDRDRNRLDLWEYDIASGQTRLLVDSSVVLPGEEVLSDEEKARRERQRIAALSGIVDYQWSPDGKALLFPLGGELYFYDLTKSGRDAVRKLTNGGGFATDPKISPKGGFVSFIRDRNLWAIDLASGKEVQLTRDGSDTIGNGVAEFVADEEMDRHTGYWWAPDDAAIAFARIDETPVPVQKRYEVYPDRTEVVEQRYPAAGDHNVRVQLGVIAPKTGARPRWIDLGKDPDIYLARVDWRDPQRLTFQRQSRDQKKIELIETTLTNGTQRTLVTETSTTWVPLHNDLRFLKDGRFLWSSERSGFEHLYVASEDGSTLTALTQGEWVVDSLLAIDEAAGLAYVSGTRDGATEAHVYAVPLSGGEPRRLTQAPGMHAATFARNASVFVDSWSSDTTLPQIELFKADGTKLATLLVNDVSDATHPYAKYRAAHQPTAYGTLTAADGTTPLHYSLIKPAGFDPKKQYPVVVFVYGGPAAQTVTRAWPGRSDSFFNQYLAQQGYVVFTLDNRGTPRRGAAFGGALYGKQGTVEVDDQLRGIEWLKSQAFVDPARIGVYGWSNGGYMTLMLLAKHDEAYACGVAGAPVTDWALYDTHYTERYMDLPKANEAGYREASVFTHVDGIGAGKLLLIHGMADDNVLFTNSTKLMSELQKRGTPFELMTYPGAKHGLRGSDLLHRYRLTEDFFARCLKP

Experiment [2] has as its target T1, PmDAP IV. Description: Gly-Pro-MCA fluorescence hydrolysis inhibition; Ki by Cheng-Prusoff. The class given is biochemical. An excerpt:
Gly-Pro-MCA fluorescence hydrolysis inhibition; Ki by Cheng-Prusoff on PmDAP IV
Target sequence in this assay (Q6F3I7 22-745): as the sequence (Q6F3I7 22-745 limits assumed) above

Each structure is given as a SMILES string. Like-named read-outs stand apart in the source and are kept apart here.

As to `Cc1cc2ncc(C(=O)NCC(C)(C)NCC(=O)N3CCC[C@H]3C#N)cn2n1` [Anagliptin], the half-maximal inhibitory concentration (IC50) in experiment [1] turned out to be 24.5 ± 0.4 µM. Also, in experiment [2] (read-out: PmDAP IV / Ki), the Ki is 3.99 ± 0.07 µM.
For `CC#CCn1c(N2CCC[C@@H](N)C2)nc2c1c(=O)n(Cc1nc(C)c3ccccc3n1)c(=O)n2C` [Linagliptin], the half-inhibitory concentration (IC50) in experiment [1] was over 100 µM. Also, the Ki in experiment [2] (read-out: PmDAP IV / Ki) came to 30 ± 1.16 µM.
`CS(=O)(=O)n1cc2c(n1)CN([C@H]1CO[C@H](c3cc(F)ccc3F)[C@@H](N)C1)C2` [Omarigliptin]: in experiment [1], the IC50 is over 100 µM. Further, the Ki in experiment [2] (read-out: PmDAP IV / Ki) amounted to 23.8 ± 3.8 µM.
In the case of `N#C[C@@H]1C[C@@H]2C[C@@H]2N1C(=O)[C@@H](N)C12CC3CC(CC(O)(C3)C1)C2` [Saxagliptin], 11.1 ± 0.8 µM corresponded to half-maximal inhibition in experiment [1] (IC50). The Ki in experiment [2] turned out to be 1.85 ± 0.13 µM.
In turn, `N[C@@H](CC(=O)N1CCn2c(nnc2C(F)(F)F)C1)Cc1cc(F)c(F)cc1F` [Sitagliptin] registered an IC50 in experiment [1] of 24.6 ± 3.6 µM. Besides, the Ki in experiment [2] came to 4 ± 0.59 µM.
Turning to `Cc1cc(N2CCN([C@@H]3CN[C@H](C(=O)N4CCSC4)C3)CC2)n(-c2ccccc2)n1` [Teneligliptin], in experiment [2] (read-out: PmDAP IV / Ki), the Ki was determined as 2.34 ± 0.09 µM.
For `Cn1c(=O)cc(N2CCC[C@@H](N)C2)n(Cc2cc(F)ccc2C#N)c1=O` [Trelagliptin], in experiment [1], the half-inhibitory concentration (IC50) was over 100 µM.
For the compound `N#C[C@@H]1CCCN1C(=O)CNC12CC3CC(CC(O)(C3)C1)C2` [Vildagliptin], in experiment [1], the midpoint of inhibition, the IC50, lay at 18.8 ± 2.4 µM. Besides, the Ki in experiment [2] amounted to 3.07 ± 0.39 µM.
